Assay results taken from patent publication US20150031572A1, “MEANS AND METHODS FOR ASSESSING NEURONAL TOXICITY” (priority 2012, published 2015).
Marks after values point to notes of the source that are not given here.

Assay: Plasma metabolite profiling (GC-MS, LC-MS, SPE-LC-MS) of rats dosed once daily over 28 days; treatment ratios versus untreated control
Assay type: in vivo, rat
Conditions: plasma
Procedure, shortened: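 Male and female rats (5/sex/group) dosed once daily for 28 days; fasted anaesthetized animals bled retro-orbitally (EDTA plasma) on days 7, 14, 28, stored −80 °C under N2. Polar and lipid fractions profiled by GC-MS (derivatized), LC-MS/MRM; steroids by online SPE-LC-MS. Pool-normalized data; treatment ratios vs sex-matched controls, Welch test p-values.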

[1] = female rats, day 7, high dose, Table 9a
[2] = female rats, day 7, high dose, Table 9b
[3] = female rats, day 14, high dose, Table 9a
[4] = female rats, day 14, high dose, Table 9b
[5] = female rats, day 28, high dose, Table 9a
[6] = female rats, day 28, high dose, Table 9b
[7] = male rats, day 7, high dose, Table 9c
[8] = male rats, day 7, high dose, Table 9d
[9] = male rats, day 14, high dose, Table 9c
[10] = male rats, day 14, high dose, Table 9d
[11] = male rats, day 28, high dose, Table 9c
[12] = male rats, day 28, high dose, Table 9d

## Cn1ncc(C(=O)c2ccc(S(C)(=O)=O)c(C3=NOCC3)c2Cl)c1O [[3-(4,5-dihydro-isoxazol-3-yl)-4-methylsulfonyl-2-chlorphenyl](5-hydroxy-1-methyl-1H-pyrazol-4-yl)methanone]
[1]
  4-Hydroxyphenylpyruvate, ratio versus control: 26.68*
  Glycine, ratio versus control: 1.37*
  Phosphatidylcholine (C18:0,C18:2), ratio versus control: 1.12*
  Serine, ratio versus control: 1.16*
  TAG (C16:0,C18:2), ratio versus control: 2.56*
  TAG (C18:1,C18:2), ratio versus control: 2.72*
  TAG (C18:2,C18:2), ratio versus control: 3.93*
  Threonine, ratio versus control: 1.16
  Tyrosine, ratio versus control: 16.36*
  gamma-Linolenic acid (C18:cis[6,9,12]3), ratio versus control: 1.44*
[2]
  5-Oxoproline, ratio versus control: 0.56*
  Glutamine, ratio versus control: 0.49*
[3]
  4-Hydroxyphenylpyruvate, ratio versus control: 25.92*
  Glycine, ratio versus control: 1.24*
  Phosphatidylcholine (C18:0,C18:2), ratio versus control: 1.12*
  Serine, ratio versus control: 1.18*
  TAG (C16:0,C18:2), ratio versus control: 2.2*
  TAG (C18:1,C18:2), ratio versus control: 2.89*
  TAG (C18:2,C18:2), ratio versus control: 2.47*
  Threonine, ratio versus control: 1.33*
  Tyrosine, ratio versus control: 16.29*
  gamma-Linolenic acid (C18:cis[6,9,12]3), ratio versus control: 1.55*
[4]
  5-Oxoproline, ratio versus control: 0.68*
  Glutamine, ratio versus control: 0.53*
[5]
  4-Hydroxyphenylpyruvate, ratio versus control: 24.95*
  Glycine, ratio versus control: 1.25*
  Phosphatidylcholine (C18:0,C18:2), ratio versus control: 1.11*
  Serine, ratio versus control: 1.14*
  TAG (C16:0,C18:2), ratio versus control: 2.44*
  TAG (C18:1,C18:2), ratio versus control: 3.2*
  TAG (C18:2,C18:2), ratio versus control: 2.77*
  Threonine, ratio versus control: 1.24*
  Tyrosine, ratio versus control: 12.88*
  gamma-Linolenic acid (C18:cis[6,9,12]3), ratio versus control: 1.77*
[6]
  5-Oxoproline, ratio versus control: 0.58*
  Glutamine, ratio versus control: 0.52*
[7]
  4-Hydroxyphenylpyruvate, ratio versus control: 31.22*
  Lysine, ratio versus control: 1.23*
  Threonine, ratio versus control: 1.16*
  Tyrosine, ratio versus control: 21.56*
[8]
  5-Oxoproline, ratio versus control: 0.5*
  Citrulline, ratio versus control: 0.73*
  Glutamine, ratio versus control: 0.41*
  Phenylalanine, ratio versus control: 0.79*
[9]
  4-Hydroxyphenylpyruvate, ratio versus control: 34.78*
  Lysine, ratio versus control: 1.32*
  Threonine, ratio versus control: 1.2*
  Tyrosine, ratio versus control: 18.22*
[10]
  5-Oxoproline, ratio versus control: 0.58*
  Citrulline, ratio versus control: 0.72*
  Glutamine, ratio versus control: 0.43*
  Phenylalanine, ratio versus control: 0.9*
[11]
  4-Hydroxyphenylpyruvate, ratio versus control: 25.05*
  Lysine, ratio versus control: 1.29*
  Threonine, ratio versus control: 1.5*
  Tyrosine, ratio versus control: 14.42*
[12]
  5-Oxoproline, ratio versus control: 0.54*
  Citrulline, ratio versus control: 0.8*
  Glutamine, ratio versus control: 0.41*
  Phenylalanine, ratio versus control: 0.82
